What was measured:
Assay type in all cases: in vivo
wheat [1] = assay: post-emergence stage experiment, crop (Table 1); conditions: post-emergence spray at 4-5 leaf stage, 250 g/ha active ingredient with 450 kg/ha water, rated after 3 weeks in greenhouse
Procedure, shortened: (§1)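 Weeds and crops grown in soil-filled pots in a greenhouse were sprayed at the 4-5 leaf stage (2-3 weeks after sowing). Compounds were applied in acetone with tween 80, diluted in water. After 3 weeks' culture, growth control was scored as fresh weight control rate.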

echinochloa = assay: weed control effect in post-emergence stage (Table 1); set-up: key: Level 10: completely dead; Level 9: above 95% growth control rate; Level 8: above 90% growth control rate; Level 7: above 80% growth control rate; Level 6: above 70% growth control rate; Level 5: above 60% growth control rate; Level 4: above 50% growth control rate; Level 3: above 20% growth control rate; Level 2: 5%-20% growth control rate; Level 1: below 5% growth control rate; conditions: post-emergence spray at 4-5 leaf stage, 250 g/ha active ingredient with 450 kg/ha water, rated after 3 weeks in greenhouse
Procedure, shortened: as §1

foxtail = assay: as above; set-up: key: Level 10: completely dead; Level 9: above 95% growth control rate; Level 8: above 90% growth control rate; Level 7: above 80% growth control rate; Level 6: above 70% growth control rate; Level 5: above 60% growth control rate; Level 4: above 50% growth control rate; Level 3: above 20% growth control rate; Level 2: 5%-20% growth control rate; Level 1: below 5% growth control rate; conditions: post-emergence spray at 4-5 leaf stage, 250 g/ha active ingredient with 450 kg/ha water, rated after 3 weeks in greenhouse
Procedure, shortened: as §1

Indian mallow = assay: as above; set-up: key: Level 10: completely dead; Level 9: above 95% growth control rate; Level 8: above 90% growth control rate; Level 7: above 80% growth control rate; Level 6: above 70% growth control rate; Level 5: above 60% growth control rate; Level 4: above 50% growth control rate; Level 3: above 20% growth control rate; Level 2: 5%-20% growth control rate; Level 1: below 5% growth control rate; conditions: post-emergence spray at 4-5 leaf stage, 250 g/ha active ingredient with 450 kg/ha water, rated after 3 weeks in greenhouse
Procedure, shortened: as §1

bidens bipinnata = assay: as above; set-up: key: Level 10: completely dead; Level 9: above 95% growth control rate; Level 8: above 90% growth control rate; Level 7: above 80% growth control rate; Level 6: above 70% growth control rate; Level 5: above 60% growth control rate; Level 4: above 50% growth control rate; Level 3: above 20% growth control rate; Level 2: 5%-20% growth control rate; Level 1: below 5% growth control rate; conditions: post-emergence spray at 4-5 leaf stage, 250 g/ha active ingredient with 450 kg/ha water, rated after 3 weeks in greenhouse
Procedure, shortened: as §1

rorippa indica = assay: as above; set-up: key: Level 10: completely dead; Level 9: above 95% growth control rate; Level 8: above 90% growth control rate; Level 7: above 80% growth control rate; Level 6: above 70% growth control rate; Level 5: above 60% growth control rate; Level 4: above 50% growth control rate; Level 3: above 20% growth control rate; Level 2: 5%-20% growth control rate; Level 1: below 5% growth control rate; conditions: post-emergence spray at 4-5 leaf stage, 250 g/ha active ingredient with 450 kg/ha water, rated after 3 weeks in greenhouse
Procedure, shortened: as §1

crab grass = assay: as above; set-up: key: Level 10: completely dead; Level 9: above 95% growth control rate; Level 8: above 90% growth control rate; Level 7: above 80% growth control rate; Level 6: above 70% growth control rate; Level 5: above 60% growth control rate; Level 4: above 50% growth control rate; Level 3: above 20% growth control rate; Level 2: 5%-20% growth control rate; Level 1: below 5% growth control rate; conditions: post-emergence spray at 4-5 leaf stage, 250 g/ha active ingredient with 450 kg/ha water, rated after 3 weeks in greenhouse
Procedure, shortened: as §1

corn gromwell = assay: wheat field resistant broadleaf weed control, greenhouse spray at 4 leaf stage; set-up: key: Level 10: completely dead; Level 9: above 95% growth control rate; Level 8: above 90% growth control rate; Level 7: above 80% growth control rate; Level 6: above 70% growth control rate; Level 5: above 60% growth control rate; Level 4: above 50% growth control rate; Level 3: above 20% growth control rate; Level 2: 5%-20% growth control rate; Level 1: below 5% growth control rate; conditions: 250 g/ha of the active substance; 4 weeks after treatment; ALS inhibitor resistant
Procedure: (§2) The activity level standard of harmful plant destruction (i.e. growth control rate) is as follows:
(§3) The above described growth control rate is fresh weight control rate.
(§4) The seeds of alopecurus japonicas, flixweed, shepherd's purse, corn gromwell, chickweed, beckmannia syzigachne, and annual ryegrass and wheat seeds were put into a plastic pot loaded with soil, and then covered with 0.5-2 cm soil, the seeds were allowed to grow in good greenhouse environment. The test plants were treated at 4 leaf stage 2-3 weeks after sowing. The test compounds of the present invention were dissolved in acetone respectively, then added with methyl oleate emulsion and diluted by certain amount of water to certain concentration. The solution was sprayed to the plant with a sprayer. Then the plants were cultured for 4 weeks in greenhouse.

chickweed = assay: as above; set-up: key: Level 10: completely dead; Level 9: above 95% growth control rate; Level 8: above 90% growth control rate; Level 7: above 80% growth control rate; Level 6: above 70% growth control rate; Level 5: above 60% growth control rate; Level 4: above 50% growth control rate; Level 3: above 20% growth control rate; Level 2: 5%-20% growth control rate; Level 1: below 5% growth control rate; conditions: 250 g/ha of the active substance; 4 weeks after treatment; ALS inhibitor resistant
Procedure: as §2, §3, §4

flixweed = assay: as above; set-up: key: Level 10: completely dead; Level 9: above 95% growth control rate; Level 8: above 90% growth control rate; Level 7: above 80% growth control rate; Level 6: above 70% growth control rate; Level 5: above 60% growth control rate; Level 4: above 50% growth control rate; Level 3: above 20% growth control rate; Level 2: 5%-20% growth control rate; Level 1: below 5% growth control rate; conditions: 250 g/ha of the active substance; 4 weeks after treatment; ALS inhibitor resistant
Procedure: as §2, §3, §4

shepherd's purse = assay: as above; set-up: key: Level 10: completely dead; Level 9: above 95% growth control rate; Level 8: above 90% growth control rate; Level 7: above 80% growth control rate; Level 6: above 70% growth control rate; Level 5: above 60% growth control rate; Level 4: above 50% growth control rate; Level 3: above 20% growth control rate; Level 2: 5%-20% growth control rate; Level 1: below 5% growth control rate; conditions: 250 g/ha of the active substance; 4 weeks after treatment; ALS inhibitor resistant
Procedure: as §2, §3, §4

wheat [2] = assay: wheat field test, crop selectivity, greenhouse spray at 4 leaf stage; conditions: 250 g/ha of the active substance; 4 weeks after treatment
Procedure: as §2, §3, §4

rice = assay: post-emergence stage experiment, crop (Table 1); conditions: post-emergence spray at 4-5 leaf stage, 250 g/ha active ingredient with 450 kg/ha water, rated after 3 weeks in greenhouse
Procedure, shortened: as §1

corn = assay: post-emergence stage experiment, crop (Table 1); conditions: post-emergence spray at 4-5 leaf stage, 250 g/ha active ingredient with 450 kg/ha water, rated after 3 weeks in greenhouse
Procedure, shortened: as §1

| Structure (SMILES) | effect on crop, Wheat (level) (wheat [1]) | weed control effect, Echinochloa (level) (echinochloa) | weed control effect, Green foxtail (level) (foxtail) | weed control effect, Indian mallow (level) (Indian mallow) | weed control effect, Bidens bipinnata (level) (bidens bipinnata) | weed control effect, Rorippa indica (level) (rorippa indica) | weed control effect, Crab grass (level) (crab grass) | corn gromwell weed controlling effect (activity level) (corn gromwell) | chickweed weed controlling effect (activity level) (chickweed) | flixweed weed controlling effect (activity level) (flixweed) | shepherd's purse weed controlling effect (activity level) (shepherd's purse) | Wheat (activity level, crop damage) (wheat [2]) | effect on crop, Rice (level) (rice) | effect on crop, Corn (level) (corn) |
| --- | --- | --- | --- | --- | --- | --- | --- | --- | --- | --- | --- | --- | --- | --- |
| CC(=O)N(CC(F)F)c1c(C(F)(F)F)ccc(C(=O)c2c(C)nn(C)c2O)c1Cl [Compound 005] | 0 | 10 | 5 (Level 5: above 60% growth control rate) | 10 | 10 | 10 | 2 (Level 2: 5%-20% growth control rate) | 10 | 10 | 10 | 10 | 0 | 7 (Level 7: above 80% growth control rate) | – |
| Cn1cc(C(=O)Oc2c(C(=O)c3ccc(C(F)(F)F)c(N4CCCC4=O)c3Cl)c(C3CC3)nn2C)cn1 [Compound 028] | 0 | 5 (Level 5: above 60% growth control rate) | 1 (Level 1: below 5% growth control rate) | 10 | 7 (Level 7: above 80% growth control rate) | 10 | 4 (Level 4: above 50% growth control rate) | 10 | 10 | 10 | 10 | 0 | 1 (Level 1: below 5% growth control rate) | 1 (Level 1: below 5% growth control rate) |
| CCOc1c(C(=O)Oc2c(C(=O)c3ccc(C(F)(F)F)c(N4CCCCCC4=O)c3Cl)cnn2C)cnn1C [Compound 051] | 0 | 6 (Level 6: above 70% growth control rate) | 0 | 10 | 2 (Level 2: 5%-20% growth control rate) | 10 | 5 (Level 5: above 60% growth control rate) | 10 | 10 | 10 | 10 | 0 | 1 (Level 1: below 5% growth control rate) | 2 (Level 2: 5%-20% growth control rate) |
| Cc1nn(C)cc1C(=O)Oc1c(C(=O)c2ccc(C(F)(F)F)c(-n3cccn3)c2Cl)cnn1C [Compound 067] | 0 | 7 (Level 7: above 80% growth control rate) | 10 | 10 | – | 10 | 7 (Level 7: above 80% growth control rate) | 10 | 10 | 10 | 10 | 0 | 3 (Level 3: above 20% growth control rate) | 3 (Level 3: above 20% growth control rate) |
| Cc1nn(C)cc1C(=O)Oc1c(C(=O)c2ccc(C(F)(F)F)c(-n3cccn3)c2Cl)c(C)nn1C [Compound 072] | 0 | 6 (Level 6: above 70% growth control rate) | 10 | 10 | – | 10 | 4 (Level 4: above 50% growth control rate) | 10 | 10 | 10 | 10 | 0 | 4 (Level 4: above 50% growth control rate) | 3 (Level 3: above 20% growth control rate) |
| Cc1cnn(-c2c(C(F)(F)F)ccc(C(=O)c3c(C)nn(C)c3OC(=O)c3cn(C)nc3C)c2Cl)c1 [Compound 088] | 0 | 10 | 10 | 10 | 4 (Level 4: above 50% growth control rate) | 10 | 9 (Level 9: above 95% growth control rate) | 10 | 10 | 10 | 10 | 0 | – | 0 |
| Cc1cnn(-c2c(C(F)(F)F)ccc(C(=O)c3c(C4CC4)nn(C)c3OC(=O)c3cn(C)nc3C)c2Cl)c1 [Compound 090] | 0 | 6 (Level 6: above 70% growth control rate) | 2 (Level 2: 5%-20% growth control rate) | 10 | – | 10 | 1 (Level 1: below 5% growth control rate) | 10 | 10 | 10 | 10 | 0 | 2 (Level 2: 5%-20% growth control rate) | 1 (Level 1: below 5% growth control rate) |

— patent US11076594B2, “Pyrazolone compound or salt thereof, preparation method therefor, herbicide composition and use thereof” (QINGDAO KINGAGROOT CHEMICAL COMPOUNDS CO., LTD., priority 2015, dated 2021)
